US20210009564A1, “CALPAIN MODULATORS AND THERAPEUTIC USES THEREOF” (BLADE THERAPERTICS, INC., priority 2018, published 2021)

Key:
Human Calpain 1/NS1 = target: T1, Human Calpain 1/NS1 (Homo sapiens, UniProt P07384); assay: Calpain inhibition, continuous fluorescence (FRET substrate) assay, calpain 1; assay type: biochemical; details: SensoLyte 520 FRET substrate, 25C
T1 sequence (P07384 1-714): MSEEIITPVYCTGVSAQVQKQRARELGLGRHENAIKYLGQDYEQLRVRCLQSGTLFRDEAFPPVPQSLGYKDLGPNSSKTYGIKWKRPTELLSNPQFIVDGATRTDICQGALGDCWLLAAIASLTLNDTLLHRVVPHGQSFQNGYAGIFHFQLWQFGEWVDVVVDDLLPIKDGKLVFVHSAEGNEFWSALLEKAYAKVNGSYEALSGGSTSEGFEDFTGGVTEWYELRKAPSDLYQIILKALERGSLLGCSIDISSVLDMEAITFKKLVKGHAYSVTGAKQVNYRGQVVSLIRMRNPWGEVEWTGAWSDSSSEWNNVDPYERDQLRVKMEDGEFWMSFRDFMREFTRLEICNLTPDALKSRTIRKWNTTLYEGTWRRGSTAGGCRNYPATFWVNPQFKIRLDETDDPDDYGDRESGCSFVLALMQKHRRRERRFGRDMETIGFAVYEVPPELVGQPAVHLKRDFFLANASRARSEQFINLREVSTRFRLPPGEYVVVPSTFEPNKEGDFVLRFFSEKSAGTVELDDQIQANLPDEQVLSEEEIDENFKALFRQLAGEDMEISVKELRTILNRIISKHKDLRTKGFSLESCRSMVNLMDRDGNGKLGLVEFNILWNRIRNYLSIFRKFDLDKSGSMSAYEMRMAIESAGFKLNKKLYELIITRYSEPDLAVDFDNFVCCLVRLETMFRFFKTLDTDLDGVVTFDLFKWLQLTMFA
T1 sequence (P04632 1-268 partner): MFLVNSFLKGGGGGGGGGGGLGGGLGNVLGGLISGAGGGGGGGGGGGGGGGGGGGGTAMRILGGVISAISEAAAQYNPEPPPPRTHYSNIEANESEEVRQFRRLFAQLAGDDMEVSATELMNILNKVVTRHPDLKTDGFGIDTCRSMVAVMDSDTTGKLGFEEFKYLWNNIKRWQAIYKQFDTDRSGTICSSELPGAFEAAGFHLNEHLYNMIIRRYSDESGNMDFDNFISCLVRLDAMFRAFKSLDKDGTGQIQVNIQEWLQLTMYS
Protocol: (§1) Calpain 1, 2, and 9 activity and inhibition thereof was assessed by means of a continuous fluorescence assay. The SensoLyte 520 Calpain substrate (Anaspec Inc) was optimized for detecting calpain activity. This substrate contains an internally quenched 5-FAM/QXLTM 520 FRET pair. Calpains 1, 2, and 9 cleave the FRET substrate into two separate fragments resulting in an increase of 5-FAM fluorescence that is proportional to calpain activity Assays were typically setup in black 384-well plates using automated liquid handling as follows. Calpain assay base buffer typically contains 50 mM Tris, pH 7.5, 100 mM NaCl and 1 mM DTT. Inhibitors were serially diluted in DMSO and used to setup 2× mixtures with calpains in the aforementioned buffer. After incubation at ambient temperature (25C), the reaction was initiated by adding a 2× mix of the fluorescent peptide substrate and CaCl2) (required for in-situ calpain activation) in the same buffer. Reaction progress curve data were typically collected for 10 min using excitation/emission wavelengths of 490 nm/520 nm on SpectraMax i3× or the FLIPR-Tetra plate readers (Molecular Devices Inc). Reaction rates were calculated from progress curve slopes typically over 1-5 min. Dose response curves (rate vs. log inhibitor concentration) were typically fit to a 4-parameter logistic function to extract IC50 values.

Human Calpain 2/NS1 = target: T2, Human Calpain 2/NS1 (Homo sapiens, UniProt P17655); assay: Calpain inhibition, continuous fluorescence (FRET substrate) assay, calpain 2; assay type: biochemical; details: SensoLyte 520 FRET substrate, 25C
T2 sequence (P17655 1-700): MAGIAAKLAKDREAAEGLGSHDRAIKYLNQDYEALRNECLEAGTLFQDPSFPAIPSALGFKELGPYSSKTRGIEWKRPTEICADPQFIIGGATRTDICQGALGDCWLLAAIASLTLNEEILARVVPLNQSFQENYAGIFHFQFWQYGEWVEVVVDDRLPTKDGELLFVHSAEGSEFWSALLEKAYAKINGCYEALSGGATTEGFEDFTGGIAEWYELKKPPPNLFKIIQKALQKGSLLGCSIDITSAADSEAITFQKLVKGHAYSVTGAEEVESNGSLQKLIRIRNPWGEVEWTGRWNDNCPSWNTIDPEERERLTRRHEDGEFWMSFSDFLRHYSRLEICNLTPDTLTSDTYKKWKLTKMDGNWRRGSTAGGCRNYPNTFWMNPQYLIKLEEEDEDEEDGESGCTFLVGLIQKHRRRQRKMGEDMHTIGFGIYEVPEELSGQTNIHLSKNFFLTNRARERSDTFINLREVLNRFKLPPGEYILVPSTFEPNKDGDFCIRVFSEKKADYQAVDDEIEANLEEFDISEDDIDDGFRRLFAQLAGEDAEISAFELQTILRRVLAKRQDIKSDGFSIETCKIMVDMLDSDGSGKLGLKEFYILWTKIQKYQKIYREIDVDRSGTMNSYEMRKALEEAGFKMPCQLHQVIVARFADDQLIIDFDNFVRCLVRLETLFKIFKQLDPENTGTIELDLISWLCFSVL
T2 sequence (P04632 1-268 partner): T1 sequence (P04632 1-268 partner)
Protocol: as §1

Human Calpain 9/NS1 = target: T3, Human Calpain 9/NS1 (Homo sapiens, UniProt O14815); assay: Calpain inhibition, continuous fluorescence (FRET substrate) assay, calpain 9; assay type: biochemical; details: SensoLyte 520 FRET substrate, 25C
T3 sequence (O14815 1-690): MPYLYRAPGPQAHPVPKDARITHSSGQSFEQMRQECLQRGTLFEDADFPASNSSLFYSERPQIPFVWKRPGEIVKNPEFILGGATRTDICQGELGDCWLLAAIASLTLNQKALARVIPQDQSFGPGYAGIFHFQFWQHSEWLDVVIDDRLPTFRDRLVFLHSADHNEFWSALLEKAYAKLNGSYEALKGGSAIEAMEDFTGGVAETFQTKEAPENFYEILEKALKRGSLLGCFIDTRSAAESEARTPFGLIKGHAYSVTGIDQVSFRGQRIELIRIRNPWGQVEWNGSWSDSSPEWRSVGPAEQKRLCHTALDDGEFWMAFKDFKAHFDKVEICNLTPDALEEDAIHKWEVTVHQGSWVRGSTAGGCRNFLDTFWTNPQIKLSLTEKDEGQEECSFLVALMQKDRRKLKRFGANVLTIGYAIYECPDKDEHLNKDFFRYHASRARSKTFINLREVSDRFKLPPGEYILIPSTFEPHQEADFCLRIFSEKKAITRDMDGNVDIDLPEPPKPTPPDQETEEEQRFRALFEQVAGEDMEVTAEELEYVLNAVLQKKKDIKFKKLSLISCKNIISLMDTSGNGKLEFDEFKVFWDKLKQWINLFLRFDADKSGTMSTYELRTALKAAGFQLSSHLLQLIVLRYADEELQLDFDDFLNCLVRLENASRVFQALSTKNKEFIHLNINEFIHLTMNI
T3 sequence (P04632 1-268 partner): T1 sequence (P04632 1-268 partner)
Protocol: as §1

[1] = system: Calpain activity in SH-SY5Y cells; assay: SH-SY5Y spectrin breakdown product (SBDP-150) western blot assay; assay type: cell-based; details: Homo sapiens, read-out: SH-SY5Y Spectrin IC50
[2] = system: Calpain activity in SH-SY5Y cells; assay: SH-SY5Y Suc-LLVY-AMC fluorescence assay; assay type: cell-based; details: Homo sapiens, read-out: SH-SY5Y + AMC IC50
[3] = SH-SY5Y cells, 25 uM A23187, SBDP-150 western blot
[4] = SH-SY5Y cells, 100 uM Suc-LLVY-AMC

Compound	IC50 (Human Calpain 1/NS1)	IC50 (Human Calpain 2/NS1)	IC50 (Human Calpain 9/NS1)	IC50 [1, 3]	IC50 [2, 4]	IC50 ([1]; SH-SY5Y)	IC50 ([2]; SH-SY5Y)
Cn1cc(C(=O)NC(Cc2ccccc2)C(=O)C(N)=O)c(-c2cccc3[nH]ncc23)n1 (stereo not shown) [Compound 16, N-(4-AMINO-3,4-DIOXO-1-PHENYLBUTAN-2-YL)-3-(1H-INDAZOL-4-YL)-1-METHYL-1H-PYRAZOLE-4-CARBOXAMIDE]	< 3 µM	< 3 µM	< 3 µM	10 to 25 µM	10 to 25 µM		
Cc1cc(C(=O)NC(Cc2ccccc2)C(=O)C(N)=O)nn1-c1ncc(-c2ccccc2)cn1 (stereo not shown) [Compound 29, N-(4-AMINO-3,4-DIOXO-1-PHENYLBUTAN-2-YL)-5-METHYL-1-(5-PHENYLPYRIMIDIN-2-YL)-1H-PYRAZOLE-3-CARBOXAMIDE]	3 to 10 µM	< 3 µM	3 to 10 µM			> 25 µM	< 10 µM
Cn1cc(C(=O)NC(Cc2ccccc2)C(=O)C(N)=O)c(-c2cccc3ccncc23)n1 (stereo not shown) [Compound 54]	< 3 µM	< 3 µM	< 3 µM	> 25 µM	> 25 µM		

Further lines, with some results ahead:

IC50 (Human Calpain 1/NS1)	IC50 (Human Calpain 2/NS1)	IC50 (Human Calpain 9/NS1)	IC50 [1, 3]	IC50 [2, 4]	Compound	IC50 ([1]; SH-SY5Y)	IC50 ([2]; SH-SY5Y)
< 3 µM	< 3 µM	< 3 µM	< 10 µM	< 10 µM	NC(=O)C(=O)C(Cc1ccccc1)NC(=O)c1cn(C(F)F)nc1-c1cccc2scnc12 (stereo not shown) [Compound 70, N-(4-AMINO-3,4-DIOXO-1-PHENYLBUTAN-2-YL)-3-(BENZO[D]THIAZOL-4-YL)-1-(DIFLUOROMETHYL)-1H-PYRAZOLE-4-CARBOXAMIDE]		
< 3 µM	< 3 µM	< 3 µM	< 10 µM	< 10 µM	NC(=O)C(=O)C(Cc1ccccc1)NC(=O)c1cn(C(F)F)nc1-c1cc(Cl)oc1Cl (stereo not shown) [Compound 36, N-(4-AMINO-3,4-DIOXO-1-PHENYLBUTAN-2-YL)-3-(2,5-DICHLOROFURAN-3-YL)-1-(DIFLUOROMETHYL)-1H-PYRAZOLE-4-CARBOXAMIDE]		
< 3 µM	< 3 µM	< 3 µM	< 10 µM	< 10 µM	Cc1occc1-c1nsnc1C(=O)NC(Cc1ccccc1)C(=O)C(N)=O (stereo not shown) [Compound 46, N-(4-AMINO-3,4-DIOXO-1-PHENYLBUTAN-2-YL)-4-(2-METHYLFURAN-3-YL)-1,2,5-THIADIAZOLE-3-CARBOXAMIDE]		
< 3 µM	< 3 µM	< 3 µM	10 to 25 µM		Cn1cc2cccc(-c3nn(C(F)F)cc3C(=O)NC(Cc3ccccc3)C(=O)C(N)=O)c2n1 (stereo not shown) [Compound 77, N-(4-AMINO-3,4-DIOXO-1-PHENYLBUTAN-2-YL)-1-(DIFLUOROMETHYL)-3-(2-METHYL-2H-INDAZOL-7-YL)-1H-PYRAZOLE-4-CARBOXAMIDE]		
